# Patent US20240050440A1, “THERAPEUTIC TARGETS AND AGENTS FOR THE TREATMENT OF TRIOSEPHOSPHATE ISOMERASE (TPI) DEFICIENCY” (University of Pittsburgh- Of The Commonwealth System of …, priority 2020, published 2024)
# “Also recorded” adds a separate entry of the source.
# Experiments:
# [1] = tested on: TPI^E105D-GFP fusion protein; experiment: HEK293 TPI^E105D-GFP high content assay (GFP intensity per cell); type: cell-based, human; conditions: prescreen of putative protein stabilizing compounds, 48 hours
# Method: HEK293 cells expressing a mutant (E105D) TPI-GFP fusion protein were created using the Flp-In System (Invitrogen, Catalog #K6010-01 and K6010-02) following the manufacturer's protocol. Briefly, a host cell line expressing the transfected Flp-In target site vector, pFRT/lacZeo, was obtained following zeocin resistance selection. TPI^E105D-GFP fusion construct was cloned into the pcDNA 5/FRT expression vector. Co-transfection of 0.1 μg of the pcDNA 5/FRT construct (390 ng/μL) and 0.9 μg of the Flp recombinase expression vector (pOG44, 127 ng/μL) into the Flp-In host cell line was performed with 3.75 μL Lipofectamine 2000 reagent (Invitrogen). A hygromycin dose response was performed to determine the minimum concentration of hygromycin B required to kill untransfected host cells. […] Expression of the TPI^E105D-GFP fusion protein was verified via Western blot. The cells were cultured using standard methods (37° C., 5% CO2) in normal media (DMEM with 10% serum, 100 U penicillin/100 μg streptomycin/ml (Lonza)). To document subcellular localization of mutant GFP-tagged TPI, nuclei were stained with Hoechst 33342 and imaged on an ImageXpress Ultra confocal high content reader in the UV and GFP channel, respectively. A z-series of images (60× objective, 90 planes, 0.3 μm z-steps) was acquired in both channels, and the color combined stack subjected to 3D reconstruction in MetaXpress. A single slice of the reconstructed image was chosen to illustrate the phenotype of mutant TPI-GFP expression.
# (§1) HEK293 TPI^E105D-GFP cells were plated (50,000 cells/well in collagen-coated 96-well thin-bottom microplates and allowed to attach overhight. Cells were treated with four point, two-fold gradients of 5× treatment solutions of test agents (6 replicates per condition). The final concentration of vehicle was 0.2%. After 48 hours in culture, cells were preincubated with propidium iodide (PI) for 30 minutes and imaged live in the GFP and Texas Red channels on an ImageXpress Ultra high content reader (Molecular Devices) using a 20× objective Images were analyzed with the multiwavelength cell scoring application using GFP to define and enumerate cells. The integrated GFP intensity per cell was used to quantify mutant TPI expression; the number of cells was used as a proxy for growth inhibition and/or cell loss; and the percentage of cells that exceeded a threshold for PI based on vehicle-treated controls was used to measure acute toxicity (necrosis).
# Assay ready daughter plates of the NIH Clinical Collection containing 2 μL of a 1 mM DMSO stock were reconstituted in DMEM (60 μL) to yield a 30 μM intermediate treatment concentration. 60 μl of DMSO (3%) was added to columns 1 and 24, and 60 μL of 600 nM luminespib was added to columns 2 and 23 to serve as negative and positive controls, respectively. Aliquots (15 μl) were transferred directly to cells in 384 well plates using an Agilent Bravo liquid handling robot (final concentration in assay, 10 μM). For the 1 μM condition, an aliquot of the 30 μM treatment solution was diluted 1:10 and controls added as above. Aliquots (15 μl) were transferred to cells to yield a […] final concentration. Plates were centrifuged for 30 seconds at 200×g and incubated at 37° C. After 24 hours, plates were imaged live in the GFP channel and returned to the incubator; after 48 hours cells were stained with PI, imaged live in the GFP and PI channels, and analyzed as described above. The LOPAC library was screened using the same procedure except that only the 10 μM, 48 hour condition was used.
# A pilot library screen was performed using the NIH Clinical Collection in the HEK TPI^E105D-GFP cell line. The NIH Clinical Collection maintained at the UPDDI contains 446 FDA approved drugs and small molecules that have a history of use in human clinical trials. The collections were assembled through the Molecular Libraries and Imaging Initiative as part of its mission to enable the use of compound screens in biomedical research. […]
# [2] = tested on: HEK293 TPI^E105D-GFP cells; type: cell-based, human
# Method: as §1
# HEK293T cells with GFP-TPI (E105D) mutation were plated (50,000/well) in the wells of a 96-well plate (100 μl) and treated with 25 μl of a 5× treatment solution of luminespib for 48 hours. […] Plates were subsequently stained with 25 μl PI (5 μg/ml in PBS), dislodged by pipetting, and analyzed by flow cytometry. […] Samples were analyzed for expression of GFP and viability (PI negative events).
compound,measurement,setting,value
CCNC(=O)c1noc(-c2cc(C(C)C)c(O)cc2O)c1-c1ccc(CN2CCOCC2)cc1 [luminespib],TPI^E105D-GFP fluorescence (in words),[1],significant increase; also recorded: highest fold increase in GFP; also recorded: strong inducer
same,TPI^E105D-GFP fluorescence (in words),[1]; listed as Luminespib,dose-dependent increases
same,cell growth / cell attachment,[2],loss of cell attachment
